According to patent US8361987B2, “DNA vaccines encoding heat shock proteins” (priority 2002, dated 2013):

Columns and labels:
lymph node cells (LNC) = assay: T-cell proliferation ([methyl-3H]-thymidine incorporation, stimulation index) of cells from vaccinated rats; assay type: cell-based, Lewis rats; details: for T-cell response to the immunizing peptide: LNC of peptide-vaccinated rats after AA induction
Experimental: Popliteal and inguinal lymph node cells (LNC) taken 26 days after the induction of AA were cultured in quadruplicates in 200 μl round bottom microtiter wells (Costar Corp., Cambridge, USA) at 2×10^5 cells per well with or without antigen. The T-cell mitogen Concanavalin A (Con A) was used as a positive control for T-cell proliferation. Cultures were incubated for 96 hrs at 37° C. in a humidified atmosphere of 5% CO2. T-cell responses were detected by the incorporation of [methyl-^3H]-thymidine (Amersham, Buckinghamshire, UK; 1 μCi/well), which was added to the wells for the last 18 hours. The stimulation index (SI) was computed as the ratio of the mean c.p.m. of antigen- or mitogen-containing wells to control wells cultured with medium alone.

adjuvant arthritis (AA) [1] = assay: Adoptive transfer of Con A-activated splenocytes from peptide-vaccinated rats, then AA induction in recipients; assay type: in vivo, Lewis rats; details: 5×10^7 Con A-activated splenocytes of peptide-vaccinated donors iv; AA induced three days later
Experimental: Spleen cells were prepared from peptide-vaccinated rats 26 days after the induction of AA. The splenocytes (10^7 cells per ml) were activated with 2.5 μg/ml of Con A for 48 hr at 37° C. in a humidified atmosphere of 5% CO2. The cells were washed with sterile PBS and injected iv into naïve rats (5×10^7 cells per rat). Three days after the transfer of the splenocytes, AA was induced.
To learn whether the protection triggered by Hu3-vaccination could be adoptively transferred by activated T-cells, splenocytes prepared from Hu3 vaccinated rats were stimulated in vitro for 2 days with the T-cell mitogen Con A, washed, and injected iv (5×10^7 cells per rat) into naïve rats. Only the recipients of cells taken from Hu3-vaccinated rats were protected against the subsequent induction of AA (FIGS. 4A and 4B). […] Thus, inhibition of AA by vaccination with Hu3 could be adoptively transferred by activated T-cells.

[2] = test system: IFNγ, IL-10 and TGFβ1 secretion by LNC; assay: Cytokine assays (ELISA of culture supernatants after 72 hrs antigen stimulation); assay type: cell-based, Lewis rats
Text: Supernatants were collected after 72 hrs of stimulation with each of the antigens tested. Rat IL-10 and IFNγ were quantitated in culture supernatants by enzyme-linked immunosorbent assay (ELISA) using Pharmingen's OPTEIA kit (Pharmingen, San Diego, USA). Rat TGFβ1 was quantified using the TGFβ1 Emax® ImmunoAssay System (Promega, Madison, USA) according to the manufacturer's instructions. Cytokine levels in supernatants are expressed as pg/ml based on calibration curves constructed using recombinant cytokines as standards. The lower limits of detection for the experiments described in this paper were 15 pg/ml for TGFβ1, IL-10 and IFNγ.

adjuvant arthritis (AA) [3] = assay: Adjuvant arthritis (AA) induction and assessment after DNA or peptide vaccination; assay type: in vivo, Lewis rats
Experimental: Plasmid DNA was prepared in large scale and injected after pretreatment with cardiotoxin (Sigma, Rehovot, Israel). Briefly, rats were vaccinated in the quadriceps three times (on days −40, −26 −12 relative to AA induction) with 150 μg of pcDNA3, pI, pII, pIII, pIV or pV. Endotoxin levels were checked by Limulus Amoebocyte Lysate and found always to be under acceptable levels for in vivo use (less than 0.02 EU/μg DNA). AA was induced 12 days after the last injection of DNA. The empty vector pcDNA3 was used as a DNA vaccination control.
AA was induced using 1 mg per rat of heat-killed Mt strain H37Ra (Difco). The day of AA induction was designated as day 0, and disease severity was assessed by direct observation of all 4 limbs in each animal. A relative score between 0 and 4 was assigned to each limb, based on the degree of joint inflammation, redness and deformity; thus the maximum possible score for an individual animal was 16. Arthritis was also quantified by measuring hind limb diameter with a caliper. Measurements were taken on the day of AA induction and 26 days later, and they are presented as the mean±SEM of the difference between the two values. The person who scored the disease was blinded to the identity of the groups. […]

[4] = LNC day 26 after AA induction, 72 hr
[5] = LNC of peptide-vaccinated rats, day 26 after AA induction

AYDEEARRGLERGLNALADA [Mt3, mycobacterial HSP65 peptide, counterpart of Hu3, reference compound]
T-cell response to the immunizing peptide (lymph node cells (LNC)): significant and specific T-cell responses | protection of recipients against subsequent induction of AA (adjuvant arthritis (AA) [1]): No protection

EEIAQVATISANGDKEIGNI [Hu12, human HSP60 peptide 166-185, control peptide, reference compound]
T-cell response to the immunizing peptide (lymph node cells (LNC)): significant and specific T-cell responses | T-cell response to the immunizing peptide (lymph node cells (LNC); listed as HU12): proliferated

KFGADARALMLQGVDLLADA (listed as Homo sapiens) [Hu3]
IFNγ secretion upon stimulation with mycobacterial antigens (PPD, HSP65, Mt176-190) [2, 4]: reduction | IL-10 secretion upon stimulation with mycobacterial antigens (PPD, HSP65, Mt176-190) [2, 4]: increase | TGFβ1 secretion upon stimulation with mycobacterial antigens (PPD, HSP65, Mt176-190) [2, 4]: increase | secretion of IFNγ, stimulated with Hu3 ([2]; LNC day 26 after AA induction, relative to respective controls (FIG. 12B)): increased | cytokine response to whole HSP60 [2, 5]: predominantly TFGβ1 | cytokines secreted in response to Hu3 [2, 5]: secreted IFNγ, IL-10 and TGFβ1 | T-cell proliferative responses to both self- and mycobacterial antigens (lymph node cells (LNC); LNC day 26 after AA induction): up-regulation | proliferative response to HSP60 (lymph node cells (LNC); LNC day 26 after AA induction): induction of a specific response | proliferative response to control peptide Hu12 (lymph node cells (LNC); LNC day 26 after AA induction): no responses | proliferative response to Hu3 (lymph node cells (LNC); LNC day 26 after AA induction, stimulated in vitro with Hu3): recognized | T-cell proliferative responses to mycobacterial antigens (PPD, HSP65, Mt176-190) (lymph node cells (LNC); LNC day 26 after AA induction, relative to controls): up-regulated | T-cell response to the immunizing peptide (lymph node cells (LNC)): significant and specific T-cell responses | protection of recipients against subsequent induction of AA (adjuvant arthritis (AA) [1]): protected | ankle swelling (adjuvant arthritis (AA) [3]; peptide vaccination 100 μg in IFA day −7, day 26 after AA induction, vs 32.2±3.5 in PBS/IFA, p=0.02): 14.2±4.7 | AA disease severity after peptide vaccination (adjuvant arthritis (AA) [3]; single i.p. dose of 100 μg peptide in IFA on day −7, compared to non-immunized rats or PBS, Hu12 or Mt3): significantly decreased disease
